From publication PMC6199744, “Development of Chemical Proteomics for the Folateome and Analysis of the Kinetoplastid Folateome” (ACS Infectious Diseases, 2018)
Like-named read-outs stand apart in the source and are kept apart here.

System: T. brucei lysate proteins
Type: binding, Trypanosoma brucei
Conditions: vehicle control = 1

Nc1nc2c(c(=O)[nH]1)N(C=O)C(CNc1ccc(C(=O)N[C@@H](CCC(=O)O)C(=O)O)cc1)CN2 (stereo partly drawn) [LEU, leucovorin]
fold change (protein TB427.06.3630 SPHINGOSINE 1-PHOSPHATE LYASE, PUTATIVE): 0.94
fold change (protein TB427.06.3670 PAR[…] COMPONENT, PUTATIVE): 0.77
fold change vs vehicle control (protein TB427.06.4480 VALYL-TRNA SYNTHETASE, PUTATIVE): 1.07
fold change (protein TB427.06.4740 IMPORTIN-ALPHA RE-EXPORTER PROTEIN, PUTATIVE): 1.22
fold change (protein TB427.06.700 ALANYL-TRNA SYNTHETASE, PUTATIVE): 0.94
fold change vs vehicle control (protein TB427.07.1300 PROTEIN DISULFIDE ISOMERASE, PUTATIVE): 1.76
fold change (protein TB427.07.1420 HY[…], CONSERVED): 0.96
fold change (protein TB427.07.2340 40S RIBOSOMAL PROTEIN S15, PUTATIVE): 0.96
fold change vs vehicle control (protein TB427.07.3160 DYNEIN HEAVY CHAIN, CYTOSOLIC, PUTATIVE): 0.86
fold change (protein TB427.07.3530 HY[…], CONSERVED): 0.87
fold change (protein TB427.07.4180 FATTY ACID ELONGASE, PUTATIVE): 0.95
fold change (protein TB427.07.4970 GLUTAMINE SYNTHETASE, PUTATIVE): 0.91
fold change vs vehicle control (protein TB427.07.7500 THYMINE-7-HYDROXYLASE, PUTATIVE): 0.97
fold change (protein TB427.08.2060 HY[…], CONSERVED): 0.77
fold change (protein TB427.08.3490 HY[…], CONSERVED): 1
fold change (protein TB427.08.3520 HY[…], CONSERVED): 0.94
fold change (protein TB427.08.3870 HY[…], CONSERVED): 1.66
fold change (protein TB427.08.5460 FLAGELLAR CALCIUM-BINDING PROTEIN): 1.21
fold change (protein TB427.08.5760 HY[…], CONSERVED): 0.93
fold change (protein TB427.08.6390 LYSOPHOSPHOLIPASE, PUTATIVE): 1.26
fold change (protein TB427.08.650 CATION-TR[…], PUTATIVE): 0.8
fold change (protein TB427.10.10020 HY[…], CONSERVED): 0.93
fold change (protein TB427.10.10350 PROTEIN KINASE, PUTATIVE): 0.95
fold change (protein TB427.10.10360 MICROTUBULE-[…], PUTATIVE): 0.82
fold change (protein TB427.10.1060 T-COMPLEX PROTEIN 1, DELTA SUBUNIT, PUTATIVE): 1.18
fold change vs vehicle control (protein TB427.10.10610 PROTEIN TYROSINE PHOSPHATASE, PUTATIVE): 2.13
fold change vs vehicle control (protein TB427.10.1100 60S RIBOSOMAL PROTEIN L9, PUTATIVE): 1.1
fold change vs vehicle control (protein TB427.10.11760 PUMILIO/PUF RNA BINDING PROTEIN 6): 0.98
fold change (protein TB427.10.12710 HEAT SHOCK PROTEIN, PUTATIVE): 2.54
fold change vs vehicle control (protein TB427.10.12820 HY[…], CONSERVED): 1.13
fold change (protein TB427.10.14140 PYRUVATE KINASE 1): 1.34
fold change vs vehicle control (protein TB427.10.14470 INTR[…] PROTEIN IFT140, PUTATIVE): 1.07
fold change (protein TB427.10.14890 C-TERMINAL MOTOR KINESIN, PUTATIVE): 1.36
fold change (protein TB427.10.2020 HEXOKINASE): 1.68
fold change (protein TB427.10.2290 CHAPERONE PROTEIN DNAJ, PUTATIVE): 0.89
fold change (protein TB427.10.2350 PYRUVATE DEH[…] E3 BINDING PROTEIN, PUTATIVE): 0.89
fold change (protein TB427.10.4610 […]-MANNOSE SYNTHASE, PUTATIVE): 0.94
fold change vs vehicle control (protein TB427.10.5810 HY[…], CONSERVED): 2.19
fold change (protein TB427.10.5840 T[…] 1-BETA, PUTATIVE): 1.21
fold change (protein TB427.10.5850 HY[…], CONSERVED): 0.84
fold change (protein TB427.10.6150 […]/BEIGE PROTEIN, PUTATIVE): 0.73
fold change (protein TB427.10.6310 MAJOR VAULT PROTEIN, PUTATIVE): 0.82
fold change (protein TB427.10.730 ATP SYNTHASE, PUTATIVE): 0.81
fold change vs vehicle control (protein TB427.10.7410 SUCCINYL-COA LIGASE GDP-FORMING] BETA-CHAIN, PUTATIVE): 1.13
fold change vs vehicle control (protein TB427.10.7630 HY[…], CONSERVED): 1.07
fold change vs vehicle control (protein TB427.10.8230 PROTEIN DISULFIDE ISOMERASE): 2.42
fold change (protein TB427.10.8910 HY[…], CONSERVED): 0.93
fold change vs vehicle control (protein TB927.10.12700 PYRUVATE DEHYDROGENASE E1 ALPHA SUBUNIT, PUTATIVE): 0.9
fold change (protein TB927.10.12740 HY[…], CONSERVED,ZINC FINGER PROTEIN FAMILY MEMEBER, PUTATIVE): 1.1
fold change (protein TB927.10.12840 MIT[…] PROTEIN, PUTATIVE): 0.92
fold change vs vehicle control (protein TB927.10.13290 ETHANOLAMINE PHOSPHOTRANSFERASE (EPT)): 0.95
fold change vs vehicle control (protein TB927.10.14800 PROTEIN KINASE, PUTATIVE): 1.13
fold change (protein TB927.10.1550 […]-ATP-ASE SUBUNIT 5): 0.94
fold change vs vehicle control (protein TB927.10.2890 ENOLASE): 1.93
fold change (protein TB927.10.2980 […]-ATPASE SUBUNIT 11): 0.91
fold change vs vehicle control (protein TB927.10.4570 […] 2): 1.87
fold change (protein TB927.10.4690 DYNEIN LIGHT CHAIN, PUTATIVE): 0.96
fold change (protein TB927.10.5370 40S RIBOSOMAL PROTEIN S10, PUTATIVE): 1
fold change vs vehicle control (protein TB927.10.540 ATP-DEPENDENT DEAD/H RNA HELICASE, PUTATIVE): 1.4
fold change (protein TB927.10.5500 HY[…], CONSERVED): 0.99
fold change vs vehicle control (protein TB927.10.560 40S RIBOSOMAL PROTEINS S11, PUTATIVE): 1.35
fold change (protein TB927.10.6050 CLATHRIN HEAVY CHAIN): 0.82
fold change vs vehicle control (protein TB927.10.8030 HY[…], CONSERVED): 0.97
fold change vs vehicle control (protein TB927.10.8160 HY[…], CONSERVED): 0.94
fold change (protein TB927.2.100 RETRO[…] SPOT (RHS) PROTEIN, PUTATIVE,RETRO[…] SPOT PROTEIN 1 (RHS1), PUTATIVE): 1.21
fold change vs vehicle control (protein TB927.2.2440 […]-ATPASE SUBUNIT 6): 1.21
fold change (protein TB927.2.3800 MRNA […], PUTATIVE): 0.96
fold change (protein TB927.3.1240 PROTEIN PHOSPHATASE 2A, PUTATIVE): 0.82
fold change (protein TB927.3.1840 3-OXO-5-ALPHA-STEROID 4-DEHYDROGENASE, PUTATIVE): 0.93
fold change vs vehicle control (protein TB927.3.2960 INOSINE-ADENOSINE-GUANOSINE-[…]): 2.01
fold change (protein TB927.3.3190 SERINE/THREONINE-PROTEIN KINASE, PUTATIVE): 0.93
fold change vs vehicle control (protein TB927.3.3450 ADP-RI[…]-LIKE PROTEIN 3A, PUTATIVE): 2.74
fold change vs vehicle control (protein TB927.3.3490 HIGH MOBILITY GROUP PROTEIN, PUTATIVE): 1.29
fold change vs vehicle control (protein TB927.3.5120 HY[…], CONSERVED (Ankyrin repeats (3 copies), putative)): 1.41
fold change vs vehicle control (protein TB927.3.740 HY[…], CONSERVED): 0.99
fold change vs vehicle control (protein TB927.4.2740 HY[…], CONSERVED (p25-alpha, putative)): 2.04
fold change (protein TB927.4.3590 T[…] 1-BETA, PUTATIVE): 1.21
fold change vs vehicle control (protein TB927.4.3820 HY[…], CONSERVED): 0.99
fold change (protein TB927.5.1630 HY[…], CONSERVED): 0.83
fold change vs vehicle control (protein TB927.5.4440 DYNEIN LIGHT CHAIN, PUTATIVE): 1.1
fold change (protein TB927.6.2200 HY[…], CONSERVED): 0.98
fold change vs vehicle control (protein TB927.6.3740 HEAT SHOCK 70 KDA PROTEIN, MIT[…], PUTATIVE): 1.13
fold change (protein TB927.6.4980 40S RIBOSOMAL PROTEIN S14): 0.97
fold change vs vehicle control (protein TB927.7.1750 60S RIBOSOMAL PROTEIN L7, PUTATIVE): 1.49
fold change vs vehicle control (protein TB927.7.4470 HY[…], CONSERVED): 1.31
fold change vs vehicle control (protein TB927.7.7430 ATP SYNTHASE ALPHA CHAIN, MIT[…]): 1.2
fold change (protein TB927.8.4330 SMALL GTP-BINDING PROTEIN RAB11): 0.97
fold change (protein TB927.8.4770 SMALL GTP-BINDING PROTEIN RAB18): 0.93
fold change vs vehicle control (protein TB927.8.4810 PROHIBITIN 1): 0.99
fold change (protein TB-292 MEMBRANE ASSOCIATED PROTEIN): 0.88
